Test results reported in PubChem BioAssay (NCI).
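Exposure lasted 48 hours, with cells grown in 96-well plates and compounds tested at five concentrations. GI50 marks 50% less growth. TGI marks complete inhibition of growth.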

Legend:
Assay in all cases: DTP human tumour cell line panel, 48 h
[1] = test system: BT-549 breast
[2] = test system: HL-60(TB) leukemia
[3] = test system: HS 578T breast
[4] = test system: IGROV1 ovarian
[5] = test system: KM12 colon
[6] = test system: MCF7 breast
[7] = test system: MDA-MB-231 breast
[8] = test system: OVCAR-3 ovarian
[9] = test system: OVCAR-8 ovarian
[10] = test system: DU-145 prostate

Compound | GI50 [1] [µM] | TGI [1] [µM] | GI50 [2] [µM] | TGI [2] [µM] | GI50 [3] [µM] | TGI [3] [µM] | GI50 [4] [µM] | TGI [4] [µM] | GI50 [5] [µM] | TGI [5] [µM] | GI50 [6] [µM] | TGI [6] [µM] | GI50 [7] [µM] | TGI [7] [µM] | GI50 [8] [µM] | TGI [8] [µM] | GI50 [9] [µM] | TGI [9] [µM] | GI50 [10] [µM] | TGI [10] [µM]
Cc1ccc2[nH]cc(-c3nc(-c4c[nH]c5ncccc45)cs3)c2c1 | > 100 | > 100 | > 100 | > 100 | > 100 | > 100 | > 100 | > 100 | > 100 | > 100 | > 100 | > 100 | > 100 | > 100 | > 100 | > 100 | > 100 | > 100 | – | –
O=C1C(Br)=CC2([N+](=O)[O-])CCNc3c(O)c4c5c(c3C2=C1Br)=NCCC=5C=N4 (stereo not given) | – | – | – | 0.454 | – | – | – | 4.27 | – | 14.8 | – | 1.72 | – | – | – | 0.784 | – | 2.38 | – | –
COc1ccc2[nH]c(C(=O)N3CC(CCl)c4ccc(N)cc43)cc2c1 (stereo not given) | – | 6.97 | – | 0.631 | – | 1.32 | – | – | – | 0.406 | – | > 39.1 | – | 0.545 | – | – | – | > 68.9 | – | –
CC(=O)O[C@H]1CC[C@@]2(C)C(=CC[C@@H]3[C@@H]2CC[C@]2(C)C(c4cccnc4)=CC[C@@H]32)C1 | 2.96 | 17.3 | 7.36 | > 100 | 3.38 | 71.3 | 26.7 | > 100 | 3.73 | > 100 | 4.84 | > 100 | 5.23 | 33.7 | 5.52 | > 100 | 19.3 | > 100 | 22.3 | > 100
N/N=C(\C(=O)Nc1c(Cl)cc([N+](=O)[O-])cc1Cl)C(c1cnc2ccc([N+](=O)[O-])cc2n1)[N+](=O)[O-] (stereo not given) | – | – | – | > 100 | – | – | – | > 100 | – | > 100 | – | – | – | – | – | – | – | > 100 | – | –
CC(=O)OC(Cc1cc(C=C(C(F)(F)F)C(F)(F)F)cc(C)n1)(C(F)(F)F)C(F)(F)F | – | 4.96 | – | 1.18 | – | 18 | – | 1.58 | – | 2.98 | – | 0.97 | – | 4.65 | – | 3.57 | – | > 100 | – | 6.84
CCCC/C=C1\CCC(CN2CCCCC2)C1=O (stereo not given) | – | > 100 | – | 14.4 | – | > 100 | – | 36.7 | – | > 33.8 | – | > 100 | – | > 100 | – | 46 | – | 33.1 | – | > 100
COC(=O)/C=C\Sc1ccn(/C=C\C(=O)OC)c(=S)n1 | – | 44.9 | – | > 100 | – | 78.9 | – | 35.2 | – | 42.8 | – | 36.5 | – | 56.7 | – | 26.7 | – | 38.1 | – | > 100
COc1ccc2c3c1OC1CC(O)C=CC31CCN(C)C2 (stereo not given) | – | – | – | > 150 | – | – | – | > 150 | – | > 150 | – | > 48.8 | – | – | – | > 150 | – | > 15 | – | –
CN(C)c1ccc(N2C(=S)SC(=Nc3ccccc3)C2=Nc2ccccc2)cc1 | – | > 100 | – | > 100 | – | > 100 | – | > 100 | – | > 100 | – | > 100 | – | > 100 | – | > 100 | – | > 100 | – | > 100
O=C(Nc1ccccc1F)c1c(O)nc2sccn2c1=O | – | – | – | > 10 | – | > 10 | – | > 10 | – | > 10 | – | > 10 | – | > 10 | – | > 10 | – | > 10 | – | > 10
